system: allergic rhinitis; assay: not given; details: phase II clinical trial; cited from earlier work

Row | SMILES | efficacy versus placebo
1 | Oc1cccc(Nc2ncc(F)c(Nc3cccc(O)c3)n2)c1 [Example R112] | lack of efficacy versus placebo

system: allergic rhinitis; assay: not given; details: dosed intranasally, phase I/II study; cited from earlier work

Row | SMILES | clinical safety | decrease in PGD2
2 | Oc1cccc(Nc2ncc(F)c(Nc3cccc(O)c3)n2)c1 [Example R112] | safe across a range of indicators | statistically significant decrease

target: T1, recombinant human GST-SYK (Homo sapiens, UniProt P43405); assay: Homogeneous Time-Resolved Fluorescence (HTRF) assay for the recombinant human SYK enzyme; assay type: biochemical; details: recombinant human GST-SYK 5 pM, ATP 25 μM, 10-dose titration; read-out: rhSYK Activity (IC50)
T1 construct: purchased Carna Biosciences 08-176
Outline: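 GST-hSYK (5 pM) preincubated 10 min at room temperature with inhibitor (0.1% DMSO) in Tris pH 7.5 buffer; reaction started with 250 nM biotinylated peptide, 5 mM Mg and 25 μM ATP, 45 min. EDTA quench with Eu-anti-phosphotyrosine antibody and SA-APC; HTRF read after 30 min.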

Row | SMILES | IC50
3 | CCCCSc1ccnc(Nc2cc(C)cc(-c3cnc(N4CCCNC(=O)C4)s3)c2)n1 [Example 217, 4-[5-(3-{[4-(butylsulfanyl)pyrimidin-2-yl]amino}-5-methyphenyl)-1,3-thiazol-2-yl]-1,4-diazepan-2-one] | ≤ 100 nM
4 | Cc1cc(Nc2nccc(OCCO)n2)cc(-c2cnc(N3CCCNC(=O)C3)s2)c1 [Example 218] | ≤ 100 nM
5 | Cc1cc(Nc2nccc(SC(C)C)n2)cc(-c2cnc(N3CCCNC(=O)C3)s2)c1 [Example 219] | ≤ 100 nM
6 | CCCSc1ccnc(Nc2cc(C)cc(-c3cnc(N4CCCNC(=O)C4)s3)c2)n1 [Example 220] | ≤ 100 nM
7 | CCSc1ccnc(Nc2cc(C)cc(-c3cnc(N4CCCNC(=O)C4)s3)c2)n1 [Example 221] | ≤ 100 nM
8 | Cc1cc(Nc2nccc(SCCO)n2)cc(-c2cnc(N3CCCNC(=O)C3)s2)c1 [Example 222, 4-{5-[3-({4-[(2-hydroxyethyl)sulfanyl]pyrimidin-2-yl}amino)-5-methylphenyl]-1,3-thiazol-2-yl}-1,4-diazepan-2-one] | ≤ 100 nM
9 | Cc1cc(Nc2nccc([S+](C)[O-])n2)cc(-c2cnc(N3CCCNC(=O)C3)s2)c1 (stereo not drawn) [Example 223, 4-[5-(3-methyl-5-{[4-(methylsulfinyl)pyrimidin-2-yl]amino}phenyl)-1,3-thiazol-2-yl]-1,4-diazepan-2-one] | ≤ 100 nM
10 | Cc1cc(Nc2nccc(C(F)(F)F)n2)cc(-c2csc(N3CCC(O)CC3)n2)c1 [Example 225, 1-[4-(3-methyl-5-{[4-(trifluoromethyl)pyrimidin-2-yl]amino}phenyl)-1,3-thiazol-2-yl]piperidin-4-ol] | 100 to 1000 nM
11 | Cc1cc(Nc2nccc(C(F)(F)F)n2)cc(-c2cnc(N3CCCNC(=O)C3)s2)c1 [Example 226, 4-[5-(3-methyl-5-{[4-(trifluoromethyl)pyrimidin-2-yl]amino}phenyl)-1,3-thiazol-2-yl]-1,4-diazepan-2-one] | ≤ 100 nM
12 | COc1ccnc(Nc2cc(C)cc(-c3sc(N4CCCNC(=O)C4)nc3Cl)c2)n1 [Example 227, 4-(4-chloro-5-{3-[(4-methoxypyrimidin-2-yl)amino]-5-methylphenyl}-1,3-thiazol-2-yl)-1,4-diazepan-2-one] | ≤ 100 nM
13 | Cc1cc(Nc2nccc(C(F)(F)F)n2)cc(-c2sc(N3CCCNC(=O)C3)nc2Cl)c1 [Example 228, 4-[4-chloro-5-(3-methyl-5-{[4-(trifluoromethyl)pyrimidin-2-yl]amino}phenyl)-1,3-thiazol-2-yl]-1,4-diazepan-2-one] | ≤ 100 nM
14 | O=C(O)C1CCN(c2nc(-c3cccc(Nc4nccc(C(F)(F)F)n4)c3)cs2)CC1 [Example 229, 1-[4-(3-{[4-(trifluoromethyl)pyrimidin-2-yl]amino}phenyl)-1,3-thiazol-2-yl]piperidine-4-carboxylic acid] | 100 to 1000 nM
15 | NC(=O)C1CCN(c2nc(-c3cccc(Nc4nccc(C(F)(F)F)n4)c3)cs2)CC1 [Example 230, 1-[4-(3-{[4-(trifluoromethyl)pyrimidin-2-yl]amino}phenyl)-1,3-thiazol-2-yl]piperidine-4-carboxamide] | 100 to 1000 nM
16 | Cc1ccnc(Nc2cccc(-c3csc(N4CCC(C(=O)O)CC4)n3)c2)n1 [Example 231, 1-(4-{3-[(4-methylpyrimidin-2-yl)amino]phenyl}-1,3-thiazol-2-yl)piperidine-4-carboxylic acid] | 100 to 1000 nM
17 | Cc1ccnc(Nc2cccc(-c3csc(N4CCC(C(N)=O)CC4)n3)c2)n1 [Example 232] | 100 to 1000 nM

Reference: US8735417B2, “Aminopyrimidines as Syk inhibitors” (Merck Sharp & Dohme Corp., priority 2009, dated 2014)
